PMC11022890 (Drug Metabolism and Disposition, 2021)

What was measured:
UGT1A9 = target: T1, UGT1A9 (Homo sapiens, UniProt O60656); test: Inhibition of propofol glucuronidation in rUGT1A9 microsomes; format: in vitro ADME
T1 sequence (O60656 26-530): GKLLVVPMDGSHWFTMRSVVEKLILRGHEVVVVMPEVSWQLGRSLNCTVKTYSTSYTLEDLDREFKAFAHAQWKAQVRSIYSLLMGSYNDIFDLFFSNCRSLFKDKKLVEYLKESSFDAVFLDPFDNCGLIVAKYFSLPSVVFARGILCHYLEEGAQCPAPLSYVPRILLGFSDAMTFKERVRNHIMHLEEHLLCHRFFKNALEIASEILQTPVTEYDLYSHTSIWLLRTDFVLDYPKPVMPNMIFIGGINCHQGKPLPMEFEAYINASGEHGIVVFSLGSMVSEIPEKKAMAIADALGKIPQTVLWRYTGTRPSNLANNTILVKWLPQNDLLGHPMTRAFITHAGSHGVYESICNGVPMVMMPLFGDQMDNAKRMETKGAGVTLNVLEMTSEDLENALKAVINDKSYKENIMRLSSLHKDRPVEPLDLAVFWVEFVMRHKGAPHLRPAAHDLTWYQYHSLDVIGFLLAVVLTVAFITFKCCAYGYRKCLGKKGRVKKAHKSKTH

UGT1A1 = target: T2, UGT1A1 (Homo sapiens, UniProt P22309); test: Screening: inhibition of β-estradiol glucuronidation in rUGT1A1 microsomes; format: in vitro ADME; details: 10 or 100 µM
T2 sequence (P22309 26-533): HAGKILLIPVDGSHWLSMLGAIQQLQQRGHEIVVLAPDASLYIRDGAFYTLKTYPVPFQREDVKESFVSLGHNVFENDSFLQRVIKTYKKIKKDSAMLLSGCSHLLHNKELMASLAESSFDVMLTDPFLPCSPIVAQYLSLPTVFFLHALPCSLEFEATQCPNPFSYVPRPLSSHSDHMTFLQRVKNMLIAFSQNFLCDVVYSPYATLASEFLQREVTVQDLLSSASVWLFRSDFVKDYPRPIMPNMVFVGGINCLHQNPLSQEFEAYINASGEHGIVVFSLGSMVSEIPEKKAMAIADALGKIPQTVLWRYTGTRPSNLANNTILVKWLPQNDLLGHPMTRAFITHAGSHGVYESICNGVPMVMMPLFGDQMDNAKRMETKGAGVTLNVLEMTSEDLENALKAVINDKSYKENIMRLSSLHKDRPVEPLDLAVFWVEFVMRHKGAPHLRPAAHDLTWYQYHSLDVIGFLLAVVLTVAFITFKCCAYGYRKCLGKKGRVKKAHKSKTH

UGT1A6 = target: T3, UGT1A6 (Homo sapiens, UniProt P19224); test: Inhibition of serotonin glucuronidation in rUGT1A6 microsomes; format: in vitro ADME; details: for inhibition vs control without cannabinoid: serotonin
T3 sequence (P19224 27-532): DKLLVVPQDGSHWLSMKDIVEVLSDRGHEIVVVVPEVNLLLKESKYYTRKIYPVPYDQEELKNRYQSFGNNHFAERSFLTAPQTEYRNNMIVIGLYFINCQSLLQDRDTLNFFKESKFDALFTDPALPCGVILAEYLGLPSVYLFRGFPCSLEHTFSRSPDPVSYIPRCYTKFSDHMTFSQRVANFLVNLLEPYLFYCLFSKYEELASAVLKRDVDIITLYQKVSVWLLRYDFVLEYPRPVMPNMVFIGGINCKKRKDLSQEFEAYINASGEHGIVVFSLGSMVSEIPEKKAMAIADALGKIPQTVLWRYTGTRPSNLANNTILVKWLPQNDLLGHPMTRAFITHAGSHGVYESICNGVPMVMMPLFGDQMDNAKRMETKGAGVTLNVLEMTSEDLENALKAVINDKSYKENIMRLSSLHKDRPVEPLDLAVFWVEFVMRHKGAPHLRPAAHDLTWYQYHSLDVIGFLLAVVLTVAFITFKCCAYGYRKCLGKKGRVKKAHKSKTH

[1] = target: T4, UGT1A9 in human liver microsomes (Homo sapiens, UniProt O60656); test: biochemical; details: HLM
T4 sequence (O60656 26-530): T1 sequence (O60656 26-530)

UGT1A3 = target: T5, UGT1A3 (Homo sapiens, UniProt P35503); format: in vitro ADME; details: rUGT1A3 microsomes; 10 or 100 µM
T5 sequence (P35503 29-534): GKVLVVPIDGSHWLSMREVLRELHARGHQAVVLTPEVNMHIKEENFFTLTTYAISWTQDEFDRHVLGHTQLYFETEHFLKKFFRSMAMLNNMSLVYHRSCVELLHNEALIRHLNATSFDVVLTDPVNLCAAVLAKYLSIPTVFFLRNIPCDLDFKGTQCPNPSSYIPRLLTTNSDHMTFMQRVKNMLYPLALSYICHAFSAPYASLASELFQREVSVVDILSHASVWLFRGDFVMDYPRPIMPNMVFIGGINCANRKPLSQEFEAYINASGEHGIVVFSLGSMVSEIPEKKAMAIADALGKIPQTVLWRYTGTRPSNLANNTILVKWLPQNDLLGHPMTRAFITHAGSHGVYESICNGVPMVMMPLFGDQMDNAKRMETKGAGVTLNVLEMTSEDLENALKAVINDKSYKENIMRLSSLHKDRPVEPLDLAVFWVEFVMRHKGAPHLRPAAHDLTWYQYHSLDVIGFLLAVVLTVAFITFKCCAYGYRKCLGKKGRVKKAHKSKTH

UGT2B15 = target: T6, UGT2B15 (Homo sapiens, UniProt P54855); test: Screening: inhibition of oxazepam glucuronidation in rUGT2B15 microsomes; format: in vitro ADME; details: 10 or 100 µM
T6 sequence (P54855 24-530): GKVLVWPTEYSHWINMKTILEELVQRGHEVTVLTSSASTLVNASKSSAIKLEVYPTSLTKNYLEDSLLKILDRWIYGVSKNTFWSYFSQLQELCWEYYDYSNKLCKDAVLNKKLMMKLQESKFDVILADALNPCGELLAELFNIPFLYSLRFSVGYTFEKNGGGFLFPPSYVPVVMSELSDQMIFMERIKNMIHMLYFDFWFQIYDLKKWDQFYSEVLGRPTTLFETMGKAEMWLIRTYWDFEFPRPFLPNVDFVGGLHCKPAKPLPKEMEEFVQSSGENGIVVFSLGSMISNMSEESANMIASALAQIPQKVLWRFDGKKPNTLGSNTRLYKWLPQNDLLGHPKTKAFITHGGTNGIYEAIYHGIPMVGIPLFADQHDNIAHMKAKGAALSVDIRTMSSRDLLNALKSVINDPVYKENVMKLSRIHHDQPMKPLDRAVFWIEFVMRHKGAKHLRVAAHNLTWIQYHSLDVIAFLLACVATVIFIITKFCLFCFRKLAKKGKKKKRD

[2] = target: T7, UGT1A9 in human kidney microsomes (Homo sapiens, UniProt O60656); test: Inhibition of furosemide glucuronidation; details: HKM
T7 sequence (O60656 26-530): T1 sequence (O60656 26-530)

[3] = IC50,u (binding-corrected IC50), probe substrate propofol
[4] = IC50, probe substrate furosemide
[5] = IC50,u (binding-corrected IC50), probe substrate furosemide

With `CCCCCc1cc(O)c2c(c1)OC(C)(C)c1ccc(C)cc1-2` [CBN, cannabinol] the “inhibition in screening (in words)” value (UGT1A9; 10 or 100 µM) was “significant inhibition”, the IC50 (UGT1A9; IC50, probe substrate propofol) was 6000 ± 750 nM and the IC50 (UGT1A9; [3]) was 510 ± 63 nM. The “inhibition in screening (in words)” value (UGT1A1) was “no significant inhibition”, the “inhibition vs control without cannabinoid” value (UGT1A6; 100 µM, screening in duplicate) was 43% and the IC50 ([1]; IC50, probe substrate propofol) was 31000 ± 4100 nM. The IC50 [1, 3] was 2900 ± 380 nM, the “inhibition in screening (in words)” value (UGT1A3) was “no significant inhibition” and the “inhibition in screening (in words)” value (UGT2B15) was “no significant inhibition”. It also gave an IC50 [2, 4] of 15000 ± 770 nM and an IC50 [2, 5] of 1900 ± 92 nM.

`C=C(C)[C@@H]1CCC(C)=C[C@H]1c1c(O)cc(CCCCC)cc1O` [CBD, cannabidiol] was tested, and the “inhibition vs control without cannabinoid” value (UGT1A9; 10 µM, propofol, screening) was 91%, the IC50 (UGT1A9; IC50, probe substrate propofol) was 3200 ± 520 nM and the IC50 (UGT1A9; [3]) was 120 ± 20 nM. For the same compound, the “inhibition in screening (in words)” value (UGT1A1) was “no significant inhibition”, the “inhibition vs control without cannabinoid” value (UGT1A6; 10 µM, screening) was 25% and the “inhibition vs control without cannabinoid” value (UGT1A6; 100 µM, screening in duplicate) was 54%. It also gave an IC50 (UGT1A6; IC50,u (binding-corrected IC50), probe substrate serotonin) of 400 ± 100 nM, an IC50 ([1]; IC50, probe substrate propofol) of 19000 ± 4600 nM and an IC50 [1, 3] of 1000 ± 240 nM. For the same compound, the “inhibition in screening (in words)” value (UGT1A3) was “no significant inhibition”, the “inhibition in screening (in words)” value (UGT2B15) was “no significant inhibition” and the IC50 [2, 4] was 3600 ± 800 nM. The IC50 [2, 5] was 220 ± 49 nM.
